The source of these data is patent publication US20240300923A1, “IRAK4 Inhibitors” (ASTRAZENECA AB, priority 2022, published 2024).

A short description of data set [1]: Human plasma protein binding, equilibrium dialysis (RED device). The data set is classed as in vitro ADME. The settings on record: for fraction unbound at 18 h, 5 μM: human, plasma, pH 7.4. The text has this: Plasma protein binding may have important implications on the pharmacokinetic behaviour of drugs. This is especially true for highly bound drugs, where the fraction unbound (fu) drug in plasma is an important parameter in the interpretation of in-vivo experiments. Traditionally, there are several different techniques used to determine the extent of drug binding to plasma proteins and equilibrium dialysis is probably the most common.
This method describes our current automated equilibrium dialysis assay in human plasma using the RED (Rapid Equilibrium Dialysis) Device and Hamilton sample handling system, described in WernevikJ et al. (2020) “A Fully Integrated Assay Panel for Early Drug Metabolism and Pharmacokinetics Profiling” Assay. Drug. Dev. Technol 18:157-179; DOI 10.1089/adt.2020.970.
The assay generally runs over three days including delivery of results. The pooled compounds are diluted in plasma to 5 μM and added to the inner chamber of the RED device and a phosphate buffer (pH 7.4) to the surrounding chamber to allow equilibrium dialysis over a semipermeable membrane with a molecular weight cut off at 8 kDa. The 5 μM solutions are also used to establish compound stability in plasma and recovery (mass balance) in the RED devices, with sampling performed at both the 0 and 18 h timepoints. Low recovery indicates binding to the dialysis equipment or solubility issues.
After dialysis for 18 hours, plasma and buffer samples are prepared for analysis by liquid chromatography and mass spectrometry (LC/MSMS). A seven-point calibration curve in plasma, ranging from 1.4 nM to 7 μM, is used to quantify the samples. All samples including the calibration curve, also contain an internal standard (IS) to allow for normalization between variations in injection volume in the UPLC-MS/MS instrumentation.
Three quality controls (QCs) are used in each run. Warfarin with low fu (fu mean ˜1%) is used as a control in each pool. Propranolol (˜30%) and Metoprolol (˜90%) are placed randomly in each run. The controls are monitored in the “Manhattan tool” (Winiwarter et al. (2015) “Time dependent analysis of assay comparability: a novel approach to understand intra-and inter-site variability over time” J. Comput. Aided Mol. Des. 29:795-807; DOI10.1007/s10822-015-9836-5), that defines the acceptance criteria for the QCs as 2.58×standard deviation.
(In equilibrium dialysis only unbound substance equilibrates across the membrane.)

For data set [2], the target named is T1, IRAK4 (Homo sapiens (Human), UniProt Q9NWZ3). As to the kind of experiment: IRAK4 enzyme assay (mass spectrometry readout). Format: biochemical. The settings on record: human recombinant IRAK4 0.2 nM, 3 mM ATP; geometric mean of at least 2 experiments. The procedure:
Potency of IRAK4 Inhibitor Compounds in IRAK4 Enzyme Assay
The inhibitory activity of compounds against IRAK4 were determined in an enzymatic assay using mass spectrometry readout. Ten point half-log compound concentration response curves, with a top concentration of 1 μM or 10 μM, were generated from 10 mM stocks of compound solubilized in DMSO using an Echo 655 (Labcyte Inc) and added to 384 well assay plates (Greiner #781280). To the assay plates, 10 μL of human recombinant IRAK4 protein (Life Technologies #PV4002) diluted to a final concentration of 0.2 nM in assay buffer (50 mM Tris-HCl pH 7.4, 10 mM MgCl, 5 mM glutathione, 0.01% BSA, 3 mM ATP) was added. The enzyme was incubated with the compounds at room temperature for 15 minutes before a peptide substrate ([…], Innovagen custom synthesis, 10 mM in DMSO) was added to each well to a final concentration of 10 μM using an Echo 655 (Labcyte Inc). After two hours at room temperature, the reaction was stopped with 65 μL of 0.4% formic acid (Merck #33015). The unphosphorylated and phosphorylated peptide were measured by LC-MS/MS on a Waters TQ-S mass spectrometer. Peaks were integrated using the TargetLynx software and the ratios between phosphorylated and unphosphorylated peptides were calculated. Curves were fitted and compound potencies determined in Genedata Screener 19 (Genedata AG). IC50 values are the geometric mean of at least 2 experiments.

Data set [3] addresses T1, IRAK4. As to the kind of experiment: IRAK4 phosphorylation cell assay (IL-1β-stimulated Karpas-299 cells). The data set is classed as cell-based. The settings on record: IRAK4 auto-phosphorylation (pIRAK4 Thr345/Ser346) in IL-1β-stimulated Karpas-299 cells; geometric mean of at least 2 experiments. The procedure:
IRAK4 Phosphorylation Cell Assay
The activation of IRAK4 by TLR or IL-1R ligands leads to IRAK4 auto-phosphorylation, which can be prevented by IRAK4 kinase inhibitors. The effect of IRAK4 inhibitor compounds on IRAK4 auto-phosphorylation was assessed in IL-1β-stimulated Karpas-299 cells as a measurement of cellular potency. Karpas-299 cells were cultured in RPMI 1640 (Gibco 61870-010) containing 10% FBS (Gibco #10270). Cells were plated at 2×10^4 cells per well in poly-D-lysine coated 384 well plates (Corning #356663) to which compounds had been added at various concentrations (10 point half log dose response with a final top concentration of 30 μM) using an Echo 655 (Labcyte Inc). Cells were centrifuged (250 g, 4 mins), incubated at 37° C. for 1 h, then stimulated with 22.7 ng/mL recombinant IL-1β (R&D Systems, #201-LB-025) at 37° C. for 10 mins, followed by fixation in 4% paraformaldehyde for 20 mins and permeabilization in ice-cold 70% MeOH in PBS for 30 mins. Cells were washed twice with phosphate-buffered saline (PBS) on a BlueWasher (BlueCatBio) then blocked with PBS containing 10% FBS for 20 mins. Blocking solution was removed with a BlueWasher and cells were stained with anti-pIRAK4 (Thr345/Ser346) (CST, #11927, 1:400) in blocking buffer with 0.05% Tween-20 for 1 h, then washed twice with PBS containing 0.05% Tween-20 on a BlueWasher, followed by staining with a Alexa 647-conjugated secondary anti-rabbit IgG antibody (CST, #4414, 1:2,000) and Hoechst 33342 (Sigma, 1:2,000) in blocking buffer with 0.05% Tween-20 for 30 mins. Finally, the cells were washed twice with PBS containing 0.05% Tween-20 and imaged on an ImageXpress Micro (Molecular Devices) with a 10× air objective using the appropriate filters. Images were analysed in Columbus (PerkinElmer) and the fluorescence intensity per cell from the secondary antibody was quantified. The quantified data were analysed in Genedata Screener 19 (Genedata AG). […] IC50 values are the geometric mean of at least 2 experiments.

T1 sequence (Q9NWZ3 whole entry): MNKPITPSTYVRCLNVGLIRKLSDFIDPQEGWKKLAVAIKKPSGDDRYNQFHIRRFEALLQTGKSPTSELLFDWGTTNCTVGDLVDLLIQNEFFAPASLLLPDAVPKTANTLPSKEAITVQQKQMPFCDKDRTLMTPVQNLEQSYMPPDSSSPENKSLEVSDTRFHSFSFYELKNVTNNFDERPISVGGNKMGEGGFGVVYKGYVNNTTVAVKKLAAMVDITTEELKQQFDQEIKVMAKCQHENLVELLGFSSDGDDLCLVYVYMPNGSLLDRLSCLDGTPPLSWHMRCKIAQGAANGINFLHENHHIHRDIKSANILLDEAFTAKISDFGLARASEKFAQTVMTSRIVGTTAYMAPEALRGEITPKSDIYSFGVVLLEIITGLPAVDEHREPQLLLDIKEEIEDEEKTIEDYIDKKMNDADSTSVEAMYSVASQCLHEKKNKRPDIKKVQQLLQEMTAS

The fraction unbound is free concentration divided by total concentration. A lower fraction unbound goes with extensive binding. `CC(=O)CC(c1ccccc1)c1c(O)c2ccccc2oc1=O` (stereo not drawn) [Warfarin] showed a fraction unbound at 18 h, 5 μM in data set [1] of around 0.01.
In general, IC50 refers to the midpoint of a concentration-inhibition curve. As for `COc1cc2nn([C@H]3CC[C@@]4(CC3)COC(=O)N4C)cc2cc1C(=O)Nc1cccn(C)c1=O` [Example 20, 6-Methoxy-N-(1-methyl-2-oxo-1,2-dihydropyridin-3-yl)-2-((5s,8s)-1-methyl-2-oxo-3-oxa-1-azaspiro[4.5]decan-8-yl)-2H-indazole-5-carboxamide], the “Hu PPB (% free)” value in data set [1] (human plasma, 5 μM, dialysis 18 hours, single experiment or average of two or more) was found to be 14 % free. For the same compound, the figures for the IC50 on IRAK4 [2] and against IRAK4 [3] were 5.6 nM and 128 nM, respectively.
Consider `CC(C)NCC(O)COc1cccc2ccccc12` (stereo not drawn) [Propranolol], for which the fraction unbound at 18 h, 5 μM in data set [1] is around 0.3.
Same read-out and setting: under `COCCc1ccc(OCC(O)CNC(C)C)cc1` (stereo not drawn) [Metoprolol] stands around 0.9.
